Data published in patent publication US20070191324A1, “Methods for treatment or prophylaxis of aldosterone-mediated pathogenic effects in a subject using an epoxy-steroidal aldosterone antagonist” (priority 1999, published 2007).
Read-outs that look alike come from different tables or passages of the source. One block for each compound: values may come before it.

Legend:
[1] = tested on: captopril-treated saline-drinking SHRSP; experiment: Angiotensin II-induced renal damage in captopril-treated saline-drinking SHRSP, Protocol 2 (Example A-8); format: in vivo, rat (SHRSP/A3N)
Experimental: Animals. Studies were conducted in accordance with institutional guidelines using male SHRSP/A3N (generations F-75 to F-78), n=37, from our local colony. These animals were bred from NIH stock, derived from the SHRSP/A3N substrain described originally by Okamoto and coworkers (Okamoto K et al. Circ. Res. 34 and 35 (suppl I):I-143-I-153.). All animals were housed in a room maintained on a 12:12-h light:dark-cycle and an ambient temperature of 22±1° C. in the Animal Care Facility at New York Medical College. Rats were weaned at 4 weeks of age and allowed free access to Purina Lab Chow 5001 (Ralston Purina, St. Louis, Mo.) and tap water until the initiation of experimental protocols.
SHRSP were placed on Stroke-Prone Rodent Diet (#39-288, Zeigler Bros Inc., Gardners, Pa.) and 1% NaCl drinking solution ad libitum starting at 8.3 weeks of age. […] Animals were handled and weighed daily. Urine samples were collected for the assessment of proteinuria. Systolic blood pressure and heart rate were measured each week. After 2 weeks of treatment, animals were decapitated, trunk blood was collected into chilled EDTA tubes, and the kidneys were removed, blotted dry, and immediately weighed. Coronal sections of kidney were fixed and later processed for light microscopic evaluation.
Assays and Analyses. Systolic blood pressure and heart rate of awake animals were measured by tail-cuff plethysmography using a Natsume KN-210 manometer and tachometer (Peninsula Laboratories Inc., Belmont, Calif.). Rats were warmed at 37° C. for 10 min and allowed to rest quietly in a Lucite chamber before measurement of blood pressure. Measurements of urine volume were made gravimetrically. Urinary protein concentration was determined by the sulfosalicylic acid turbidity method. Plasma aldosterone was measured by radioimmunoassay using ^125I-aldosterone as a tracer (Coat-a Count Aldosterone, Diagnostic Products Co., Los Angeles, Calif.).
Histology. Kidneys were preserved in 10% phosphate-buffered formalin. Coronal sections (2-3 μm) were stained with hematoxylin and eosin and examined by light microscopy in a blinded fashion as previously described (Stier C T et al. J Pharmacol Exp Ther (1992) 260:1410-1415). Glomerular damage was categorized as ischemic or thrombotic. Ischemic lesions were defined as retraction of glomerular capillary tufts with or without appreciable mesangiolysis. Glomerular thrombotic lesions were defined as any one of a combination of the following: segmental to global fibrinoid necrosis, focal thrombosis of glomerular capillaries, swelling and proliferation of intracapillary (endothelial and mesangial) and/or extracapillary cells (crescents), and expansion of reticulated mesangial matrix with or without significant hypercellularity. […] Vascular thrombotic lesions were defined as any one or a combination of the following: mural fibrinoid necrosis, extravasation and fragmentation of red blood cells, and luminal and/or mural thrombosis. Proliferative arteriopathy was characterized by proliferation of markedly swollen myointimal cells with swollen round to ovoid vesicular nuclei surrounded by mucinous extracellular matrix (“onion skinning”) often resulting in nodular thickening. Vascular damage was expressed as the number of arteries and arterioles with lesions per 100 glomeruli. The presence of casts and tubular (ischemic) retraction and simplification was assessed semiquantitatively.
Statistical Analysis. Significant effects with respect to treatment and time were determined by two-way analysis of variance. Data with only one grouping variable were analyzed statistically by Student's unpaired t tests. When more than two groups were compared, one-way analysis of variance was performed followed by the post-hoc Newman-Keul's multiple comparison test. Data were analyzed using version 2.01 of the GraphPad Prism statistical software package (GraphPad Software Inc., San Diego, Calif.). P<0.05 was considered statistically significant.

[2] = tested on: diabetic type 2 patients with hypertension and microalbuminuria; experiment: Eplerenone, enalapril and combination in diabetic hypertensives with microalbuminuria, 24 weeks (Examples A-18, D-7); format: in vivo, human
[3] = tested on: patients with hypertension and left ventricular hypertrophy; experiment: Eplerenone, enalapril and combination in left ventricular hypertrophy, 9 months (Examples A-15, D-4); format: in vivo, human
Text: Table […] illustrates forth the above-described dosing scheme. […] Additional laboratory assessments of blood for clinical safety will be done monthly. Routine urinalysis will be done every three months. […] A blood sample for genotyping will be collected at Week 0. At screening and at Month 9, a 12-lead ECG and physical examination will be done. […] In case of early termination, an MRI and blood sample for TSH will be done for those patients who have received double-blind treatment for at least three months. At Weeks 0, 12 and Months 6 and 9, pharmacoeconomic data will be collected on all patients. The primary measure of efficacy is the change from baseline in LVM, as assessed by MRI, in the eplerenone group versus the enalapril group. […] Secondary measures of efficacy will be the following: […] (3) aortic compliance and ventricular filling parameters; and (4) special studies (PIIINP, microalbuminuria, PAI, and tPA). Additionally, the long-term safety and tolerability of the three treatment groups will be compared. […] The study design is illustrated in FIG. D-10. […] Left ventricular mass (LVM) (assayed by MRI), BP, collagen turnover, and tolerability were assessed at the 9-month endpoint.

[4] = tested on: patients with mild-to-moderate hypertension; experiment: Eplerenone versus enalapril in essential hypertension, 12-month titration-to-effect (Example D-3); format: in vivo, human
Experimental: The study design is illustrated in FIG. D-6. Patients with mild-to-moderate hypertension (diastolic blood pressure [DBP]≧95 mmHg and <110 mmHg) were randomized to receive initially EPL 50 mg QD (n=253) or ENAL 10 mg QD (n=246). If DBP ≧90 mmHg at Weeks 4, 8, 12, 16, or 20, the dose of study medication was up-titrated incrementally to EPL 100 mg and 200 mg QD, or ENAL 20 mg and 40 mg QD. […] At 24 wks and 12 months, changes in BP, RAAS hormone profile, urinary albumin excretion (urinary albumin: creatinine ratio [UACR]), laboratory tests, safety, and adverse events (AEs) were assessed.

[5] = tested on: patients with mild to moderate hypertension; experiment: Eplerenone/HCTZ dose ranging factorial design study (Example D-2); format: in vivo, human; settings: eplerenone 25, 50 or 200 mg daily; HCTZ 12.5 or 25 mg daily; 8 weeks
Experimental: Patients were assessed at weeks 0, 2, 4, and 8. Study assessments at protocol-specified timepoints included blood pressure (BP), heart rate, clinical laboratory analyses, vital signs, physical examinations, 12-lead ECG, and monitoring of adverse events. A total of 614 patients were randomized.

[6] = tested on: patients with low-renin hypertension; experiment: Eplerenone versus losartan in low-renin hypertension, 16 weeks (Examples A-16, D-5); format: in vivo, human
Text: Patients will continue on therapy until Week 16. Table […] illustrates the above-described dosing scheme. […] Plasma renin will be determined at screening; serum aldosterone, plasma renin, and plasma cortisol will be determined at Weeks 0, 8, and 16. […] A 12-lead electrocardiogram will be done at Weeks 0 and 16. Physical examinations will be completed at screening and at Week 16. […] Secondary measures of efficacy will be the following: […] Study design is illustrated in FIG. D-16. […] At Weeks 8 and 16, BP, RAAS hormone profile, and safety were assessed.

[7] = tested on: black and white patients with mild-to-moderate hypertension; settings: for Active Renin (% change) / ΔDBP / ΔSBP: baseline to Week 16
[8] = captopril 50 mg/kg/d, angiotensin II 25 ng/min, eplerenone 100 mg/kg/d, 2 weeks
[9] = 9-month endpoint, forced titration
[10] = 9-month endpoint, EPL 200 mg, ENAL 40 mg, EPL 200 mg/ENAL 10 mg
[11] = Week 24, EPL 50-200 mg QD, ENAL 10-40 mg QD titrated
[12] = Week 8 (monotherapy), EPL 100-200 mg QD, LOS 50-100 mg QD
[13] = Week 16, after allowed addition of HCTZ

Compound: C[C@H](CS)C(=O)N1CCC[C@H]1C(=O)O [Captopril]
Glomerular damage, Total [1, 8]: 0 ± 0 lesions/100 glomeruli
Renal arteriopathy, Proliferative [1, 8]: 0 ± 0 lesions/100 glomeruli
Renal arteriopathy, Thrombotic [1, 8]: 0 ± 0 lesions/100 glomeruli
Renal arteriopathy, Total [1, 8]: 0 ± 0 lesions/100 glomeruli
plasma aldosterone concentration [1, 8]: 107 ± 26 pg/mL
tubules with ischemic retraction and simplification [1, 8]: absent

patients withdrawn for hyperkalemia ([2]; 24 weeks): 2 patients
subjects with elevated K+ (≧6.0 mEq/L) ([2]; 24 weeks): 2 subjects
patients experiencing coughing ([4]; 12-month study): 6.5%
patients experiencing hyperglycemia ([4]; 12-month study): 2.8%
patients experiencing urinary tract infections (UTI) ([4]; 12-month study): 2.8%
Compound: CCOC(=O)[C@H](CCc1ccccc1)N[C@@H](C)C(=O)N1CCC[C@H]1C(=O)O [Enalapril, reference compound]
patients requiring addition of hydrochlorothiazide (HCTZ) ([2]; EPL 200 mg QD, ENAL 40 mg QD, EPL 200 mg/ENAL 10 mg, 24 weeks): 43/81
Adjusted mean change ΔDBP (Week 8-baseline) ([2]; Week 8): −11.6
Adjusted mean change ΔSBP (Week 8-baseline) ([2]; Week 8): −15.4
Adjusted mean change ΔDBP (Week 24-baseline) ([2]; Week 24): −15.0
Adjusted mean change ΔSBP (Week 24-baseline) ([2]; Week 24): −20.4
tolerability ([2]; in vivo): well tolerated
DBP Adjusted mean change [3, 9]: −13.0 mmHg
SBP Adjusted mean change [3, 9]: −22.5 mmHg
decrease from baseline in UACR [3, 10]: −39.1%
decrease from baseline in collagen turnover [3, 10]: −7.3%
patients experiencing coughing ([3]; 9-month study): 14.1%
LVM Adjusted mean change [g (SE)] ([3]; left ventricular mass by MRI, 9-month endpoint, forced titration (EPL 50-200 mg, ENAL 10-40 mg)): −19.7 (3.20) g
DBP change ([4]; 12 months): −14.1 mmHg
SBP change ([4]; 12 months): −14.8 mmHg
DBP change [4, 11]: −11.3 mmHg
SBP change [4, 11]: −12.7 mmHg
reduction in UACR ([4]; Week 24, patients with baseline UACR ≧30 mg/g): −25.7%
safety and tolerability ([4]; in vivo): safe and well tolerated

Compound: NS(=O)(=O)c1cc2c(cc1Cl)NCNS2(=O)=O [HCTZ, reference compound]
DBP, change from Baseline to the Final Visit [5]: dose-dependent decreases in DBP
SBP, change from Baseline to the Final Visit [5]: dose-dependent decreases in SBP

Compound: CCCCc1nc(Cl)c(CO)n1Cc1ccc(-c2ccccc2-c2nn[nH]n2)cc1 [Losartan, reference compound]
cumulative percentage of patients requiring HCTZ add-on therapy ([6]; 16 weeks): 55.6%
increase in active renin levels ([6]; Week 8): +63.8%
increase in serum aldosterone levels ([6]; Week 8): −18.7%
mean change from baseline in DBP [6, 12]: −6.7 mmHg
mean change from baseline in SBP [6, 12]: −10.1 mmHg
increase in active renin levels ([6]; Week 16): +83.3%
increase in serum aldosterone levels ([6]; Week 16): −5.5%
mean change from baseline in DBP [6, 13]: −9.8 mmHg
mean change from baseline in SBP [6, 13]: −15.0 mmHg
Active Renin (% change) ([7]; All Patients): +67.1%
ΔDBP ([7]; All Patients): −6.9 mmHg
ΔSBP ([7]; All Patients): −6.3 mmHg
Active Renin (% change) ([7]; Black Patients): +40.0%
ΔDBP ([7]; Black Patients): −6.0 mmHg
ΔSBP ([7]; Black Patients): −5.3 mmHg
adjusted mean percent change from baseline in UACR ([7]; Week 16, EPL 50-200 mg QD, LOS 50-100 mg QD): −18.2%
Active Renin (% change) ([7]; White Patients): +113.7%
ΔDBP ([7]; White Patients): −8.4 mmHg
safety and tolerability ([7]; human, in vivo): safe and well-tolerated

Compound: Angiotensin II: Angiotensin II (human type) infused by osmotic minipump (DRVYIHPF; Angiotensin-2; UniProt P01019 25-32, looked up)
Glomerular damage, Ischemic [1, 8]: 13 ± 3 lesions/100 glomeruli
Glomerular damage, Thrombotic [1, 8]: 2 ± 1 lesions/100 glomeruli
Glomerular damage, Total [1, 8]: 15 ± 3 lesions/100 glomeruli
Renal arteriopathy, Proliferative [1, 8]: 1 ± 1 lesions/100 glomeruli
Renal arteriopathy, Thrombotic [1, 8]: 15 lesions/100 glomeruli
Renal arteriopathy, Total [1, 8]: 16 ± 2 lesions/100 glomeruli
plasma aldosterone concentration [1, 8]: 404 ± 160 pg/mL
renal damage ([1]; captopril + angiotensin II 25 ng/min, with eplerenone 100 mg/kg/d or vehicle): 18±4%
proteinuria (urinary protein excretion) ([1]; end of study (2 weeks), captopril 50 mg/kg/d, angiotensin II 25 ng/min s.c., eplerenone 100 mg/kg/d by gavage): 96 ± 13 mg/day
